In patent US20230278981A1, “DICHLOROPHENOL HSD17B13 INHIBITORS AND USES THEREOF” (INIPHARM, INC., priority 2020, published 2023) one finds IC50 data, which are given here for 31 compounds.

This assay concerns the target HSD17B13 (Homo sapiens (Human), UniProt Q7Z5P4). The assay is described as follows: LC/MS estrone detection assay: conversion of estradiol to estrone by HSD17B13. In kind it is biochemical. Particulars: 4 μM estradiol, 6 mM NAD+, 30 nM HSD17B13 enzyme (E. coli expressed His-tagged), 2 hours at 26.5° C. The gist of the method:
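His-tagged E. coli-expressed HSD17B13 (30 nM) with 4 μM estradiol and 6 mM NAD+ in 1 M potassium phosphate pH 7.4, 0.5% DMSO, 2 h at 26.5° C. Estrone and estradiol quantified by LC-MS/MS after MeCN quench with D4-estrone internal standard; activity as % of uninhibited enzyme, IC50 by four-parameter fit, duplicates.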

Chain of HSD17B13 (Q7Z5P4 20-300): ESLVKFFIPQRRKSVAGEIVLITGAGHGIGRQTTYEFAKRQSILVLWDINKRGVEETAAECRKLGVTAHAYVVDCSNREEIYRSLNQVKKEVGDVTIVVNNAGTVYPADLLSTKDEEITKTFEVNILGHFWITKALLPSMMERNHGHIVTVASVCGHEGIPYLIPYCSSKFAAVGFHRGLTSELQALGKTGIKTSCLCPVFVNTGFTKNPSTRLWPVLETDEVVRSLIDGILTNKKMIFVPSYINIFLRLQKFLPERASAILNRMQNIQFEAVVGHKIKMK

As to `Cc1ccc(NC(=O)c2cc(Cl)c(O)c(Cl)n2)c2c(=O)n(Cc3ccccc3C(F)(F)F)c(C(F)F)nc12` [Example 181, 4,6-dichloro-N-(2-(difluoromethyl)-8-methyl-4-oxo-3-(2-(trifluoromethyl)benzyl)-3,4-dihydroquinazolin-5-yl)-5-hydroxypicolinamide], the IC50 (in general, the concentration at which inhibition is half-maximal) lay in the range of 100 to 500 nM.
To `C[C@@H](c1cccc(F)c1)n1cnc2cccc(NC(=O)c3cc(Cl)c(O)c(Cl)c3)c2c1=O` [Example 12, (S)-3,5-dichloro-N-(3-(1-(3-fluorophenyl)ethyl)-4-oxo-3,4-dihydroquinazolin-5-yl)-4-hydroxybenzamide] belongs at most 100 nM.
To `O=C(Nc1cccc2ncn(Cc3cccnc3Cl)c(=O)c12)c1cc(Cl)c(O)c(Cl)n1` [Example 129, 4,6-dichloro-N-{3-[(2-chloropyridin-3-yl)methyl]-4. oxo-3,4-dihydroquinazolin-5-yl}-5-hydroxypyridine-2-carboxamide] belongs 100 to 500 nM; to `Cn1ccc(-c2ccccc2Cn2cnc3cccc(NC(=O)c4cc(Cl)c(O)c(Cl)c4)c3c2=O)n1` [Example 105, 3,5-dichloro-4-hydroxy-N-(3-(2-(1-methyl-1H-pyrazol-3-yl)benzyl)-4-oxo-3,4-dihydroquinazolin-5-yl)benzamide], 100 to 500 nM.
Regarding `O=C(Nc1cccc2nc(C(F)(F)F)n(Cc3ccccc3OC(F)(F)F)c(=O)c12)c1cc(Cl)c(O)c(Cl)c1` [Example 70, 3,5-dichloro-4-hydroxy-N-(4-oxo-3-(2-(trifluoromethoxy)benzyl)-2-(trifluoromethyl)-3,4-dihydroquinazolin-5-yl)benzamide], the IC50 lay within 100 to 500 nM.
To `Cn1nc(NC(=O)c2cc(Cl)c(O)c(Cl)c2)c2c(=O)n(Cc3ccccc3)cnc21` [Example 99, N-(5-benzyl-1-methyl-4-oxo-4,5-dihydro-1H-pyrazolo[3,4-d]pyrimidin-3-yl)-3,5-dichloro-4-hydroxybenzamide] belongs 1000 to 10000 nM; to `O=C(Nc1cccc2ncn(Cc3ccc(C(F)(F)F)nc3)c(=O)c12)c1cc(Cl)c(O)c(Cl)c1` [Example 19, 3,5-dichloro-4-hydroxy-N-(4-oxo-3-((6-(trifluoromethyl)pyridin-3-yl)methyl)-3,4-dihydroquinazolin-5-yl)benzamide], 100 to 500 nM.
To `COc1ccccc1CCNC(=O)c1sccc1NC(=O)c1cc(Cl)c(O)c(Cl)c1` [Example 35, 3-(3,5-dichloro-4-hydroxybenzamido)-N-(2-methoxyphenethyl)thiophene-2-carboxamide] belongs at most 100 nM; to `O=C(Nc1cccc2ncn(Cc3ccccc3-c3ccccn3)c(=O)c12)c1cc(Cl)c(O)c(Cl)n1` [Example 110, 4,6-dichloro-5-hydroxy-N-(4-oxo-3-(2-(pyridin-2-yl)benzyl)-3,4-dihydroquinazolin-5-yl)picolinamide], 100 to 500 nM.
`O=C(Nc1cccc2ncn(Cc3cccc(OC(F)(F)F)c3)c(=O)c12)c1ccc(Cl)c(O)c1Cl` [Example 65, 2,4-dichloro-3-hydroxy-N-(4-oxo-3-(3-(trifluoromethoxy)benzyl)-3,4-dihydroquinazolin-5-yl)benzamide] registered an IC50 of 1000 to 10000 nM.
Turning to `O=C(Nc1cccc2ncn(Cc3cccnc3Cl)c(=O)c12)c1cc(Cl)c(O)c(Cl)c1` [Example 122, 3,5-dichloro-N-(3-((2-chloropyridin-3-yl)methyl)-4-oxo-3,4-dihydroquinazolin-5-yl)-4-hydroxybenzamide], the 50% inhibitory concentration (IC50) was in the range of 100 to 500 nM.
Compound `Cn1c(=O)n(Cc2ccccc2OC(F)(F)F)c(=O)c2c(NC(=O)c3cc(Cl)c(O)c(Cl)c3)cccc21` [Example 93, 3,5-dichloro-4-hydroxy-N-(1-methyl-2,4-dioxo-3-(2-(trifluoromethoxy)benzyl)-1,2,3,4-tetrahydroquinazolin-5-yl)benzamide] displayed an IC50 of at most 100 nM.
The compound `Cc1ccc2ncn(Cc3ccccc3OC(F)(F)F)c(=O)c2c1NC(=O)c1cc(Cl)c(O)c(Cl)c1` [Example 94, 3,5-dichloro-4-hydroxy-N-(6-methyl-4-oxo-3-(2-(trifluoromethoxy)benzyl)-3,4-dihydroquinazolin-5-yl)benzamide] gave an IC50 of 100 to 500 nM.
Take `O=C(Nc1csc2ncn(Cc3ccccc3)c(=O)c12)c1cc(Cl)c(O)c(Cl)n1` [Example 98, N-(3-benzyl-4-oxo-3,4-dihydrothieno[2,3-d]pyrimidin-5-yl)-4,6-dichloro-5-hydroxypicolinamide]: the half-inhibitory concentration (IC50) lay in the range of 100 to 500 nM.
Regarding `Cn1nc(NC(=O)c2cc(Cl)c(O)c(Cl)n2)c2c(=O)n(Cc3ccccc3)cnc21` [Example 107, N-(5-benzyl-1-methyl-4-oxo-4,5-dihydro-1H-pyrazolo[3,4-d]pyrimidin-3-yl)-4,6-dichloro-5-hydroxypicolinamide], the half-maximal inhibitory concentration (IC50) lay in the range of 500 to 1000 nM.
To `O=C(Nc1scnc1C(=O)NCc1ncccc1C(F)(F)F)c1cc(Cl)c(O)c(Cl)n1` [Example 196, 5-(4,6-dichloro-5-hydroxypicolinamido)-N-((3-(trifluoromethyl)pyridin-2-yl)methyl)thiazole-4-carboxamide] belongs 100 to 500 nM; to `Cc1nsc(NC(=O)c2cc(Cl)c(O)c(Cl)c2)c1C(=O)NCc1ccccc1F` [Example 31, 5-(3,5-dichloro-4-hydroxybenzamido)-N-(2-fluorobenzyl)-3-methylisothiazole-4-carboxamide], 100 to 500 nM.
Take `Cc1ccc(NC(=O)c2cc(Cl)c(O)c(Cl)c2)c2c(=O)n(Cc3ccccc3OC(F)(F)F)c(C)nc12` [Example 89, 3,5-dichloro-N-(2,8-dimethyl-4-oxo-3-(2-(trifluoromethoxy)benzyl)-3,4-dihydroquinazolin-5-yl)-4-hydroxybenzamide]: the IC50 was at most 100 nM.
With `O=C(N[C@H]1CCCC[C@@H]1C(=O)NCc1ccccc1OC(F)(F)F)c1cc(Cl)c(O)c(Cl)n1` [Example 144, 4,6-dichloro-5-hydroxy-N-((1S, 2S)-2-((2-(trifluoromethoxy)benzyl)carbamoyl)cyclohexyl)picolinamide], the IC50 is above 10000 nM.
The figure for `O=C(Nc1csc2ncn(Cc3ccccc3OC(F)(F)F)c(=O)c12)c1cc(Cl)c(O)c(Cl)c1` [Example 103, 3,5-dichloro-4-hydroxy-N-(4-oxo-3-(2-(trifluoromethoxy)benzyl)-3,4-dihydrothieno[2,3-d]pyrimidin-5-yl)benzamide] is 100 to 500 nM.
In turn, `O=C(Nc1cccc2ncn(Cc3ccc(N4CCS(=O)(=O)CC4)cc3)c(=O)c12)c1cc(Cl)c(O)c(Cl)c1` [Example 63, 3,5-dichloro-N-(3-(4-(1,1-dioxidothiomorpholino)benzyl)-4-oxo-3,4-dihydroquinazolin-5-yl)-4-hydroxybenzamide] had an IC50 of 100 to 500 nM.
To `O=C(Nc1cccc2ncn(Cc3ccc(F)cc3)c(=O)c12)c1cc(Cl)c(O)c(Cl)c1` [Example 7, 3,5-dichloro-N-(3-(4-fluorobenzyl)-4-oxo-3,4-dihydroquinazolin-5-yl)-4-hydroxybenzamide] belongs 100 to 500 nM.
The figure for `Cc1nc2c(F)ccc(NC(=O)c3cc(Cl)c(O)c(Cl)c3)c2c(=O)n1[C@@H](C)c1ccccc1OC(F)(F)F` [Example 173, (S)-3,5-dichloro-N-(8-fluoro-2-methyl-4-oxo-3-(1-(2-(trifluoromethoxy)phenyl)ethyl)-3,4-dihydroquinazolin-5-yl)-4-hydroxybenzamide] is 100 to 500 nM.
The figure for `O=C(Nc1cccc2ncn(Cc3ccc(C(F)(F)F)cc3)c(=O)c12)c1cc(Cl)c(O)c(Cl)c1` [Example 6, 3,5-dichloro-4-hydroxy-N-(4-oxo-3-(4-(trifluoromethyl)benzyl)-3,4-dihydroquinazolin-5-yl)benzamide] is at most 100 nM.
In turn, `N#Cc1cccc(Cn2cnc3cccc(NC(=O)c4cc(Cl)c(O)c(Cl)c4)c3c2=O)c1` [Example 48, 3,5-dichloro-N-(3-(3-cyanobenzyl)-4-oxo-3,4-dihydroquinazolin-5-yl)-4-hydroxybenzamide] had an IC50 of 100 to 500 nM.
The figure for `Cc1ccc(NC(=O)c2cc(Cl)c(O)c(Cl)c2)c2c(=O)n(Cc3ccccc3OC(F)(F)F)cnc12` [Example 88, 3,5-dichloro-4-hydroxy-N-(8-methyl-4-oxo-3-(2-(trifluoromethoxy)benzyl)-3,4-dihydroquinazolin-5-yl)benzamide] is at most 100 nM; for `CS(=O)(=O)c1ccccc1Cn1cnc2cccc(NC(=O)c3cc(Cl)c(O)c(Cl)n3)c2c1=O` [Example 79, 4,6-dichloro-5-hydroxy-N-(3-(2-(methylsulfonyl)benzyl)-4-oxo-3,4-dihydroquinazolin-5-yl)picolinamide] it is 500 to 1000 nM; for `O=C(Nc1cccc2ncn(Cc3cccc(F)c3)c(=O)c12)c1cc(Cl)c(O)c(Cl)c1` [Example 16, 3,5-dichloro-N-(3-(3-fluorobenzyl)-4-oxo-3,4-dihydroquinazolin-5-yl)-4-hydroxybenzamide] it is 100 to 500 nM.
With `Cc1ccc(NC(=O)c2cc(Cl)c(O)c(Cl)n2)c2c(=O)n(Cc3ncccc3C(F)(F)F)c(C(F)F)nc12` [Example 177, 4,6-dichloro-N-(2-(difluoromethyl)-8-methyl-4-oxo-3-((3-(trifluoromethyl)pyridin-2-yl)methyl)-3,4-dihydroquinazolin-5-yl)-5-hydroxypicolinamide], the IC50 is 100 to 500 nM.
To `Cc1ccc(NC(=O)c2cc(Cl)c(O)c(Cl)n2)c2c(=O)n(Cc3nn(C)c4ccccc34)c(C)nc12` [Example 162, 4,6-dichloro-N-(2,8-dimethyl-3-((1-methyl-1H-indazol-3-yl)methyl)-4-oxo-3,4-dihydroquinazolin-5-yl)-5-hydroxypicolinamide] belongs 100 to 500 nM; to `Cc1nc2c(F)ccc(NC(=O)c3cc(Cl)c(O)c(Cl)c3)c2c(=O)n1Cc1ccccc1OC(F)(F)F` [Example 168, 3,5-dichloro-N-(8-fluoro-2-methyl-4-oxo-3-(2-(trifluoromethoxy)benzyl)-3,4-dihydroquinazolin-5-yl)-4-hydroxybenzamide], at most 100 nM.
